Measured values published in patent US9872861B2, “Methods of treatment using selective Bcl-2 inhibitors” (AbbVie Inc., priority 2010, dated 2018).

What was measured:
[1] = system: cells dependent on Bcl-2 for survival; experiment: Mechanism of cell killing (apoptosis hallmarks); type: cell-based
Source text: As also shown in Table 1B, additional compounds show selective binding affinity for Bcl-2 over Bcl-XL and other Bcl-2 family proteins.

[2] = system: peripheral blood immune cells and platelets; experiment: Peripheral blood lymphocytes and platelets in (NZB×NZW)F1 mice, Cell Dyn hematology analyzer; type: in vivo; conditions: (NZB×NZW)F1 mice, four days, orally every day
[3] = system: submandibular salivary gland; experiment: Salivary gland histology in spontaneous murine model of lupus; type: in vivo, (NZB×NZW)F1 mice
Source text: It is recognized within the art that Sjogren's Syndrome is a chronic disease state that affects the moisture-producing glands of the body, including the salivary glands of the mouth. As such, it was theorized that penetration of the selective Bcl-2 inhibitors into the salivary glands of patients with Sjogren's Syndrome could provide an effective treatment to decrease lymphocytes associated with Sjogren's Syndrome, without the dose-limiting thrombocytopenia associated with non-selective Bcl-2 inhibition. A histologic assessment of the penetration of selective Bcl-2 inhibitors into the salivary glands of spontaneous murine model for lupus was performed to test this theory. The spontaneous murine model of lupus, as described in Example 3, was used for the histological assessment described herein. Specifically, sublingual and submandibular salivary glands were fixed in 10% neutral-buffered formalin and paraffin embedded. Five μm sections were H&E stained and semiquantitatively scored (0-4) by an experienced pathologist for inflammatory cell infiltrates. Salivary gland infiltrate scoring categories: (1) 3 or fewer small periductular foci, (2) 3 or more medium sized foci, (3) several extensive foci, and (4) coalescing to diffuse infiltrates. The histologic assessment of the submandibular tissue sections is illustrated in FIG. 11.

IgG anti-ds DNA [4] = experiment: Anti-ds DNA titer by ELISA in spontaneous lupus model; type: in vivo, (NZB×NZW)F1 mice
Description: It is believed that Compound 1 triggers apoptosis of lymphocytes that are responsible for production of antibodies, which play a role in the progression of systemic lupus erythematosus, as well as Sjogren's Syndrome. […] Specifically, anti-dsDNA antibody levels were measured by ELISA and assigned arbitrary activity unit concentrations per ml relative to a standard plasma pool derived from proteinuric 9-10 month old NZB/W mice. ELISA assay was performed by coating plates with poly-L-lysine followed by calf-thymus DNA. Diluted mouse plasma was incubated and developed using anti-IgG HRP conjugated antibodies and the mean OD from duplicate wells was compared to a titrated standard curve of pooled high tittered anti-dsDNA plasma. The undiluted standard plasma pool was arbitrarily assigned a value of 1000 anti-dsDNA Units/ml. A linear regression analysis was then used to calculate the relative units of a given sample multiplied by the given dilution factor.

FL5.12-Bcl-XL cells = experiment: Cellular efficacy in FL5.12 cells dependent on Bcl-XL; type: cell-based, murine; conditions: Mus musculus, 3% FBS
renal tissue = experiment: Renal histology and immunohistochemistry in spontaneous lupus nephritis mice; type: in vivo, (NZB×NZW)F1 mice
Description: An experiment was performed to determine the extent to which the selective Bcl-2 inhibitors infiltrated the kidney tissue. Specifically, a histologic assessment of the penetration of selective Bcl-2 inhibitors into the renal tissue of spontaneous murine model for lupus was performed. The spontaneous murine model of lupus, as described in Example 3, was used for the histological assessment described herein. The kidneys were bisected and then fixed in 10% neutral-buffered formalin or cryopreserved (snap frozen). For H&E staining, 5-μm sections from paraffin-embedded tissues were semiquantitatively scored (0-4) by an experienced pathologist for glomerulonephritis and tubular changes (dilation and casts). For IgG immunohistochemistry, 5-μm cryosections were fixed with acetone, washed, and blocked with 10% normal goat serum. Sections were then incubated with FITC-conjugated goat anti-mouse IgG (Cappel/ICN Pharmaceuticals) or negative control HRP-goat IgG (Jackson ImmunoResearch Laboratories) and coverslipped using Vectashield with 4′,6-diamidino-2-phenylindole (Vector Laboratories). Sections were evaluated for severity of IgG deposition using a semiquantitative scoring system (from 0-4). To identify for B and T cells, immunohistochemistry for CD45R (B cells) and CD3 (T cells) was completed on paraffin sections. FIGS. 6 and 7 illustrate the results of the histological assessment, and FIG. 8 illustrates the effect of selective Bcl-2 inhibitor treatment on IgG deposition, B cells, and T cells in the kidneys.

[5] = Exposure in spontaneous lupus model; type: in vivo; conditions: 30 mg/kg dosing
Source text: When mice became moribund, they were sacrificed according to Institutional Animal Care and Use Committee protocols.

FL5.12-Bcl-2 cells = experiment: Cellular efficacy in FL5.12 cells dependent on Bcl-2; type: cell-based, murine; conditions: Mus musculus, 3% FBS
IgG anti-ds DNA [6] = experiment: Anti-ds DNA titer by ELISA in IFNα-accelerated lupus model; type: in vivo, (NZB×NZW)F1 mice; conditions: interferon-induced model, 3-30 mg/kg
Description: An additional experiment was performed to determine the effects of treatment with a selective Bcl-2 inhibitor on anti-DS DNA titer in the Interferon-α accelerated lupus model. Anti-dsDNA antibody levels were measured by ELISA and assigned arbitrary activity unit concentrations per ml relative to a standard plasma pool derived from proteinuric 9-10 month old NZB/W mice. ELISA assay was performed by coating plates with poly-L-lysine followed by calf-thymus DNA. Diluted mouse plasma was incubated and developed using anti-IgG HRP conjugated antibodies and the mean OD from duplicate wells was compared to a titrated standard curve of pooled high tittered anti-dsDNA plasma. The undiluted standard plasma pool was arbitrarily assigned a value of 1000 anti-dsDNA Units/ml. A linear regression analysis was then used to calculate the relative units of a given sample multiplied by the given dilution factor. The results of this experiment are illustrated in FIG. 10.

[7] = Exposure in IFNα-induced lupus model; type: in vivo
Description: Treatment was initiated in a late-prophylactic mode (7 days after IFNα adenovirus). […] All treatment groups were administered treatment 7 days after adenovirus injection. Following adenovirus injection, mice were monitored weekly for proteinuria (PU) using Albustix test strips (VWR). Severe PU was defined by consecutive weekly measurements of PU≧300 mg/dl. When mice became moribund, they were sacrificed according to Institutional Animal Care and Use Committee protocols.

RS4;11 cells = experiment: Cellular efficacy in Bcl-2 dependent tumor cell line RS4;11; type: cell-based, human; conditions: 10% HS
Mcl-1 = Mcl-1 (Homo sapiens, UniProt Q07820); experiment: TR FRET competitive binding affinity, Mcl-1; conditions: read-out: Target Affinity TR FRET, Mcl-1
Mcl-1, sequence (Q07820 whole entry): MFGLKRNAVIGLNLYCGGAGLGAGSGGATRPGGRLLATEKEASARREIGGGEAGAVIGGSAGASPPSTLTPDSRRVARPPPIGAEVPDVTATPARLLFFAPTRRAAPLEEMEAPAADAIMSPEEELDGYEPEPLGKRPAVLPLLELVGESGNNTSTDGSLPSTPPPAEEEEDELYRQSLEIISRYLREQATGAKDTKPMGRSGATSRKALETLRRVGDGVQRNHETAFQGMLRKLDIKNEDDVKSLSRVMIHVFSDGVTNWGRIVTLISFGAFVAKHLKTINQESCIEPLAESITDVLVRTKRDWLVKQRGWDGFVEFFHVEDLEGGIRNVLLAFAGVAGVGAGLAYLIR
Description: A comparison of the binding affinity for each of the compounds was performed to determine target affinity, as measured by Time-Resolved Fluorescence Resonance Energy Transfer (TR FRET).

In the case of `CC1(C)CCC(CN2CCN(c3ccc(C(=O)NS(=O)(=O)c4ccc(NCC5CCOCC5)c([N+](=O)[O-])c4)c(Oc4cnc5[nH]ccc5c4)c3)CC2)=C(c2ccc(Cl)cc2)C1` [Compound 1, 4-(4-{[2-(4-chlorophenyl)-4,4-dimethylcyclohex-1-en-1-yl]methyl}piperazin-1-yl)-N-({3-nitro-4-[(tetrahydro-2H-pyran-4-ylmethyl)amino]phenyl}sulfonyl)-2-(1H-pyrrolo[2,3-b]pyridin-5-yloxy)benzamide], the “hallmarks of apoptotic cell death” value [1] is reported as “rapid cytochrome c release, caspase-3 and -7 activation, and membrane phosphatidylserine (PS) externalization”, the “caspase dependence of cell killing” value ([1]; ablated by pan caspase inhibitor z-VAD-fmk) is reported as “caspase-dependent” and the “lymphocytes in peripheral blood” value [2] is reported as “dose dependent decrease in lymphocytes”. The platelet counts [2] was “maintaining normal platelet counts”, the “submandibular salivary gland histology scores vs untreated” value ([3]; 30 mg/kg and 100 mg/kg) was “statistically significant improvement” and the “salivary gland histology score” value ([3]; 30 mg/kg and 100 mg/kg, scale 0-4, untreated mice 3-4) was 1-2. For the same molecule, the salivary gland infiltrates ([3]; 30 or 100 mg/kg) was “small, discrete and less frequent”, the “anti-ds DNA titer” value (IgG anti-ds DNA [4]; spontaneous model, 1, 3 and 10 mg/kg) was “no appreciable reduction” and the “anti-ds DNA titer vs vehicle control” value (IgG anti-ds DNA [4]; spontaneous model, week 40, 30 and 100 mg/kg) was “significantly inhibited the increase in anti-ds DNA titer”. The EC50 (FL5.12-Bcl-XL cells) was 261 nM, the “IgG deposition in renal tissue” value (renal tissue; 30 mg/kg) was “decrease in IgG deposition” and the “renal histology scores (glomerulonephritis, tubular changes, perivascular infiltrates)” value (renal tissue; 30 mg/kg and 100 mg/kg) was “statistically significant improvement”. The “B cell and T cell numbers in renal tissue” value (renal tissue; 100 mg/kg) was “decreases in B cell and T cell numbers”, the renal tissue infiltrates (renal tissue; 30 or 100 mg/kg) was “small, discrete and less frequent” and the exposure [5] was 40000 ng·h/mL. The EC50 (FL5.12-Bcl-2 cells) was 4 nM, the “anti-ds DNA titer” value (IgG anti-ds DNA [6]) was “did not significantly inhibit” and the target efficacious exposure [7] was “approximately 40 μg·h/mL”. For the same molecule, the EC50 (RS4;11 cells) was 12 nM and the Ki (Mcl-1) was greater than 440 nM.
